Patent publication EP0206322B1, “N-(2-carboxy)-ethyl-1,8-naphthalene imide and its salts for the treatment of diabetic retinopathies and neuropathies” (I.P.A. INTERNATIONAL PHARMACEUTICAL ASSOCIATED S.r.l., priority 1985, dated 1986)
Where two headings read alike, the source gives them in different places.

Legend:
[1] = test system: platelets of rabbit blood; test: In vitro platelet antiaggregant activity, ADP-induced aggregation; format: cell-based
Experimental: (§1) The platelet antiaggregant activity of IPA 955 has been determined in comparison with a known antiaggregant activity, Ticlopidine, on the platelets of rabbit blood added with 3.6% sodium citrate in an amount of 10%. The blood was centrifuged for 15' at 1200 rpm and the surnatant was recovered for its platelet content. The residue has been further centrifuged with the aim of obtaining a "poor" plasma (3000 - 3500 rpm). The plasma platelets obtained after the first centrifugation were suitably diluted with the poor plasma, counted and the rich plasma (first centrifugation) was diluted according to the platelet count so as to obtain a final concentration of platelets of 25.10⁴ ÷ 30.10⁴/mm³.
(§2) The aggregation was induced by the addition of ADP and collagene at the specified concentrations.

[2] = Acute toxicity in the mouse (LD50 by Litchfield and Wilcoxon method); format: in vivo; conditions: oral and intravenous administration, at the tested doses
Experimental: The acute toxicity of IPA 955 has been studied in the mouse after oral and intravenous administration. The LD₅₀ values were calculated according to the Litchfield and Wilcoxon method (J. Pharm. Exp. Therap. 1949, 96, 99).

aldose-reductase = target: T1, aldose-reductase (Rattus norvegicus, UniProt P07943); test: Aldose-reductase inhibitory activity (rat lens homogenate supernatant, method of Varma and Kinoshita); format: biochemical, rats
T1 construct: The surnatant, after centrifugation at 3000 x g for 15 minutes, has been used; from tissue; host or cells: crystalline lenses of adult male rats (homogenate supernatant)
Experimental: Crystallin lenses of adult male rats have been homogenized in 0.1 M phosphate buffer pH 6.2. The surnatant, after centrifugation at 3000 x g for 15 minutes, has been used. The surnatant contained 13 mg/ml of proteins. Quercitrin (Fluka, Buchs) 1 mM dissolved in DMSO: H2O (1:10) has been used. The aldose-reductase activity has been tested by the method described by […] J.H. Kinoshita (Biochem. Pharmacol. 25, 2505, 1976) using 1 ml of final volume containing NAPDH (20 μl of a 10 mM solution), DL glyceraldheide 1.5 x 10^-3 M final, […] (25 μl of a 1 M solution) and 150 μl of a surnatant. The blank contained the same substances, except the surnatant.

[3] = test system: platelets of rabbit blood; test: In vitro platelet antiaggregant activity, collagen-induced aggregation; format: cell-based; conditions: for inhibition at 625 µM / inhibition at 1250 µM: Oryctolagus cuniculus, Platelet, read-out: Percent inhibition; for inhibition at 625 µM: compound 0.625 mM; for inhibition at 1250 µM: compound 1.25 mM
Experimental: as §1, §2

[4] = ADP conc. 5.0 μM, compound 1.25 mM
[5] = ADP conc. 6.25 μM, compound 0.625 mM
[6] = ADP conc. 6.25 μM, compound 1.25 mM
[7] = ADP conc. 8.3 μM, compound 1.25 mM
[8] = ADP conc. 12.5 μM, compound 0.625 mM
[9] = ADP conc. 12.5 μM, compound 1.25 mM

SMILES: O=C(O)CCN1C(=O)c2cccc3cccc(c23)C1=O [IPA 955, N-(2-carboxy)-ethyl-1,8-naphthaleneimide]
- Percent inhibition [1, 4]: 14.6%
- Percent inhibition [1, 5]: 8.4%
- Percent inhibition [1, 6]: 25.66%
- Percent inhibition [1, 7]: 16.3%
- Percent inhibition [1, 8]: 23.17%
- Percent inhibition [1, 9]: 16.85%
- Percent inhibition ([1]; ADP-induced aggregation, summary over the tables): about 20%
- acute toxicity [2]: practically devoid of toxicity
- activity relative to quercitrin (times higher) (aldose-reductase; ratio of Ki values against quercitrin): about 6 times
- Ki (aldose-reductase; supernatant of rat lens homogenate, DL glyceraldheide 1.5 x 10⁻³ M, NADPH, read-out: Ki): 1.04 µM
- inhibition at 625 µM ([3]; collagene 25 μg/ml): 41%
- inhibition at 1250 µM ([3]; collagene 25 μg/ml): 48.8%
- inhibition at 1250 µM ([3]; collagene 50 μg/ml): 38.7%
- platelet antiaggregation activity (percent inhibition) ([3]; collagen induced aggregation, summary over the tables): 40 to 50%

SMILES: Clc1ccccc1CN1CCc2sccc2C1 [TICLOPIDINE, Ticlopidine, reference compound]
- Percent inhibition [1, 4]: 24.4%
- Percent inhibition [1, 5]: 9.7%
- Percent inhibition [1, 6]: 20.5%
- Percent inhibition [1, 7]: 19.75%
- Percent inhibition [1, 8]: 15.66%
- Percent inhibition [1, 9]: 20.02%
- inhibition at 625 µM ([3]; collagene 25 μg/ml): 45.3%
- inhibition at 1250 µM ([3]; collagene 25 μg/ml): 66.5%
- inhibition at 1250 µM ([3]; collagene 50 μg/ml): 59.6%

SMILES: C[C@@H]1O[C@@H](Oc2c(-c3ccc(O)c(O)c3)oc3cc(O)cc(O)c3c2=O)[C@H](O)[C@H](O)[C@H]1O [quercitrin, reference compound]
- Ki (aldose-reductase): 6 µM
